Test results from paper PMC13379085 (PLOS Neglected Tropical Diseases, 2026).

Key:
[1] = test system: Intracellular L. donovani amastigotes; assay: Luminescence-based assay of intracellular L. donovani burden in THP-1 macrophages; assay type: cell-based, Leishmania donovani
Experimental: Luminescent strains, L. donovani LV82 expressing firefly luciferase (a kind gift from Dr. Abhay Satoskar, Ohio State University) and L. mexicana (NR-51210, ATCC) expressing renilla luciferase were used to evaluate the effect of the compounds in intracellular and extracellular conditions. Wild-type L. donovani LV82 (ATCC) were used for Giemsa staining based experiments. All parasites were cultured at 25°C and 5% CO2 in M199 media (Corning) supplemented with 10% FBS, 1% Penicillin/Streptomycin, and Hemin (0.01 mg/mL), and used in experiments up to passage 15.
THP-1 cells were seeded in a 96 well plate (25,000 cells/well) overnight then differentiated with 150 nM phorbol 12-myristate 13-acetate (PMA) over 72 hours (S1 Fig). […] Briefly, promastigotes of a known cell density were resuspended in RPMI media (with 10% FBS, 1% P/S and 0.05 mM β-mercaptoethanol) and incubated with adhered THP-1 cells over 18 hours. After infection, cells were washed three times with fresh media to remove extracellular promastigotes.
Infected macrophages were then treated with compounds solubilized in DMSO ranging from 0.1-10 µM in concentrations. After 72 hours of treatment, the viability of the amastigotes within macrophages was determined using Promega firefly luminescence assay (Cat E1500) or Pierce Renilla luciferase assay (Cat 16166) for L. donovani and L. mexicana strains, respectively. Briefly, media was removed, and cells were lysed with the assay lysis buffer. The luciferase substrate was then incubated with the lysed cells for 10 min at room temperature and luminescence of live Leishmania was measured in a white opaque 96 well plate using a Biotek plate reader.

[2] = test system: Intracellular L. mexicana amastigotes; assay: microbe, parasite or virus in culture; assay type: cell-based, Leishmania mexicana; conditions: bone marrow derived macrophages, Giemsa staining, 72-hour incubation
Experimental: Bone marrow derived macrophages (BMDMs) were isolated from BALB/c mice and cultured as previously described. […] Completely differentiated BMDMs are obtained after 7 days of culture with media change every 2 days. Harvested cells are seeded onto 10 mm glass cover slips at 5 x 10^5 cells/ well of a 24 well plate in DMEM media (without LCM) and allowed to adhere overnight. BMDM cells are then infected overnight with LV82 L. donovani or L. mexicana (NR-51210) at a multiplicity of infection of 10. After infection, cells were washed three times with fresh media to remove extracellular promastigotes and treated with compounds for a 72-hour incubation. BMDM cells were then washed with phosphate buffered saline, fixed with ice-cold methanol, and stained with Giemsa (5% v/v in water). The cover slips with stained cells are mounted onto glass slides and imaged on EVOS XL (100X, Thermo Fisher Scientific). Leishmania amastigotes per 100 macrophages were determined in a blinded manner.

lysozyme = biological target: T1, lysozyme (Homo sapiens, UniProt P61626); assay: Affinity capture proteomics with 197-bead in Leishmania infected macrophage lysate; assay type: binding; set-up: endogenous in cells; host or cells: PMA-differentiated THP-1 macrophages infected with L. mexicana (lysate); conditions: 197-bead vs control bead
T1 sequence (P61626 19-148): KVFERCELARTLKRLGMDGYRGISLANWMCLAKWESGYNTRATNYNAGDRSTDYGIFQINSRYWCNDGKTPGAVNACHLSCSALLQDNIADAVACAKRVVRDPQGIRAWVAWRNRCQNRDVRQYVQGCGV
Experimental: To generate cell lysate, ten million THP-1 cells were plated overnight in a 10 cm dish, then differentiated with 150 nM phorbol 12-myristate 13-acetate (PMA) for 72 hours. The resulting macrophages were infected with L. mexicana promastigotes at a multiplicity of infection of 1:10 and incubated for 18 hours. After infection, cells were washed three times with PBS to remove extracellular promastigotes. Cells were then collected by scraping and pelleted with centrifugation. The cell pellet was resuspended in cell buffer (50mM Tris-HCl, 150mM NaCl, 2mM EDTA, 0.5% triton-x-100) and subjected to five freeze-thaw cycles. Samples were centrifuged 14,000g x 10 minutes to remove cellular debris. Protein concentration of supernatant was determined by BCA assay and cell lysate was stored at -80 ° C until further use.
Functionalized agarose beads were made as follows. NHS activated agarose beads were washed three times to remove acetone and resuspended in PBS to create a slurry. 494 (197 with ligation chemical handle) was prepared in 0.3 mL at 25mM in DMSO and 1.7 mL PBS was added to 1 mL of agarose slurry for a final volume of 3 mL at a concentration of 2.5mM (10% v/v DMSO). […]
The peptide samples were resuspended in 15 μL of 5% ACN/0.1% formic acid and analyzed by LC-MS/MS using an Easy nLC 1200 coupled to a QExactive HF mass spectrometer (Thermo Scientific). […]

## O=C(CNCc1cccc(F)c1)Nc1ccc(-n2cc(C(F)(F)F)nc2-c2ccc(-c3ccc(C(F)(F)F)cc3)cc2)cc1 [Compound 197]
[1]; host-directed effect vs cytotoxicity in THP-1
  Selectivity 24h LC50/ Lum IC50: >20.6
[1]; imidazole series
  intracellular activity (primary screen): retaining potent intracellular activity
[2]; Leishmania mexicana, Macrophage, 72 h
  IC50: < 2 µM
[2]
  IC50: 1.7 µM
lysozyme
  affinity capture abundance of lysozyme, Log2 fold change: 6.57
